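These data come from cells grown in 96-well plates and exposed to compound for 48 hours at five concentrations. TGI marks complete inhibition of growth.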
Tests used:
Experiment in all cases: NCI tumour cell line growth inhibition, 48 h
EKVX NSCLC = system: EKVX NSCLC
HCT-15 colon = system: HCT-15 colon
LOX IMVI melanoma = system: LOX IMVI melanoma
M14 melanoma = system: M14 melanoma
MDA-MB-435 = system: MDA-MB-435
MDA-N = system: MDA-N
NCI-H226 lung = system: NCI-H226 lung
NCI-H522 lung = system: NCI-H522 lung
RPMI-8226 leukemia = system: RPMI-8226 leukemia
SK-MEL-28 melanoma = system: SK-MEL-28 melanoma
T-47D breast = system: T-47D breast
SF-539 CNS = system: SF-539 CNS

Row | Structure (SMILES) | TGI (EKVX NSCLC) | TGI (HCT-15 colon) | TGI (LOX IMVI melanoma) | TGI (M14 melanoma) | TGI (MDA-MB-435) | TGI (MDA-N) | TGI (NCI-H226 lung) | TGI (NCI-H522 lung) | TGI (RPMI-8226 leukemia) | TGI (SK-MEL-28 melanoma) | TGI (T-47D breast) | TGI (SF-539 CNS)
1 | Cc1nnc(N)nc1C/C=C/C(C)Sc1ccc(Cl)cc1 (centres undefined) | 23.3 µM | > 54.1 µM | > 30.4 µM | 26 µM | > 50.8 µM | > 100 µM | 7.69 µM | 16.1 µM | > 70 µM | 45 µM | 42.4 µM | –
2 | Cc1cnc2c(c1)C(=O)N(c1ccc(Br)cc1)S2(=O)=O | > 100 µM | > 100 µM | > 100 µM | > 100 µM | > 100 µM | > 100 µM | > 100 µM | > 100 µM | > 100 µM | > 100 µM | > 100 µM | > 100 µM
3 | N#Cc1c2c(c(Nc3cccc(C(F)(F)F)c3)n3c1nc1ccccc13)CCCC2 | 62.4 µM | > 100 µM | 35.8 µM | – | > 100 µM | 56.7 µM | 63.2 µM | 22.1 µM | > 100 µM | 47.5 µM | > 100 µM | 31 µM
4 | CCCCCCc1cc2cc(-c3cn4ccccc4n3)c(=O)oc2cc1O | 45.4 µM | 20.9 µM | > 36.9 µM | 16.1 µM | 20.6 µM | 18.9 µM | 34.5 µM | 15.1 µM | 18.4 µM | 24.7 µM | 52 µM | 7.19 µM
5 | CC(=O)OC1CC2C(=O)CC1(C)C2(C)C (centres undefined) | > 100 µM | > 100 µM | > 100 µM | > 100 µM | > 100 µM | > 100 µM | > 100 µM | > 100 µM | > 100 µM | > 100 µM | > 100 µM | > 100 µM
6 | O=C1NC(NNc2ccccc2)=N/C1=C\c1ccco1 | 46.7 µM | 33 µM | – | 44.5 µM | 47.6 µM | > 100 µM | – | 27.8 µM | 66 µM | 68.5 µM | 44.9 µM | –
7 | CCOC(=O)c1cc(C2CCN(Cc3ccccc3)C2=O)c(C(=O)/C=C(/C)N)[nH]1 (centres undefined) | > 100 µM | > 100 µM | – | > 100 µM | > 100 µM | > 100 µM | – | > 100 µM | > 100 µM | > 100 µM | > 100 µM | –
8 | CCCC1(N2C(=O)c3ccc4c5c(ccc(c35)C2=O)N(C2(CCC)CCCCC2)C4=O)CCCCC1 | – | > 100 µM | – | > 100 µM | > 100 µM | > 100 µM | – | > 100 µM | > 100 µM | > 100 µM | > 100 µM | > 100 µM
9 | C[C@@]12C[C@@H](c3ccccc3O1)N1CCCSC1=N2 | > 100 µM | > 100 µM | > 100 µM | > 100 µM | > 100 µM | > 100 µM | > 100 µM | > 100 µM | > 100 µM | > 100 µM | > 100 µM | > 100 µM
10 | COC(=O)CCc1cc(OC)c2oc(-c3ccc(OC)c(OC)c3)c(CO)c2c1 | > 100 µM | > 100 µM | > 100 µM | > 100 µM | > 100 µM | > 100 µM | > 100 µM | > 100 µM | > 100 µM | > 100 µM | > 100 µM | > 100 µM
11 | [O-][N+]1=C(c2ccccc2)/C(=C2/C(c3ccccc3)=[N+]([O-])c3ccccc32)Cc2ccccc21 | 48.5 µM | 36.7 µM | 34.5 µM | 53.7 µM | 55.1 µM | 31.7 µM | 42.2 µM | 30.5 µM | 52 µM | 46.2 µM | 45.8 µM | 56.4 µM
12 | CC(C)C1CCC(=O)CC1CCCCC1CC(=O)CC1O[Si](C)(C)C(C)(C)C (centres undefined) | 36.1 µM | 21.4 µM | 9.28 µM | 43.4 µM | 10.9 µM | 21.1 µM | 15.5 µM | 4.02 µM | 5.6 µM | 19.7 µM | 46.9 µM | 24.8 µM
13 | O=C(N/N=C\c1ccc(Cl)cc1)Nc1cccc2ccccc12 | > 100 µM | > 31.6 µM | > 100 µM | > 100 µM | 6.67 µM | > 21.3 µM | > 30 µM | > 31.5 µM | > 100 µM | > 100 µM | > 100 µM | 35.7 µM
14 | C[N+]1(C)C/C(=C\C=C\c2ccccc2)C(=O)/C(=C/C=C/c2ccccc2)C1 | > 87.4 µM | > 100 µM | 52.1 µM | 39.1 µM | 20 µM | 11.1 µM | > 72.1 µM | 21.5 µM | 10.9 µM | 17 µM | 47.4 µM | 33.9 µM
15 | CCOC(=O)NC(C(F)(F)F)(C(F)(F)F)P(=O)(OCC)OCC | – | > 100 µM | > 100 µM | > 100 µM | > 100 µM | > 100 µM | > 100 µM | 36.9 µM | 87.4 µM | > 100 µM | > 100 µM | –
16 | COc1cc(C2SCC(=O)N2c2ccc(Cl)cc2)cc(OC)c1OC (centres undefined) | > 60.1 µM | > 100 µM | > 100 µM | > 57.8 µM | 19.4 µM | 20.9 µM | 98.4 µM | > 100 µM | > 55.3 µM | > 100 µM | > 24.2 µM | > 100 µM
17 | CC(=O)O[C@H]1C(=O)[C@@]2(C)[C@H]([C@H](OC(=O)c3ccccc3)[C@]3(O)C[C@H](OC(=O)[C@H](O)[C@@H](NC(=O)OC(C)(C)C)c4ccco4)C(C)=C1C3(C)C)[C@]1(OC(C)=O)CO[C@@H]1C[C@@H]2O | > 50 µM | 12.3 µM | 22.3 µM | 25.2 µM | 2.27 µM | 0.0325 µM | – | 0.00875 µM | > 28.2 µM | > 28.3 µM | > 50 µM | 0.0138 µM
18 | O=C(/C=C/c1ccc(O)c(O)c1)c1ccc(O)cc1O | 75.6 µM | 44.3 µM | 24 µM | 34.7 µM | 29.1 µM | 19.8 µM | 37.6 µM | 8.65 µM | 55.2 µM | 30.5 µM | 20 µM | 25.8 µM
19 | COc1ccc2nc3c([N+](=O)[O-])ccc4c3c(c2c1)N=CN4CCN(C)C | 18 µM | 16.6 µM | 14.6 µM | 18.7 µM | 25.9 µM | 16.9 µM | 20.3 µM | 9.68 µM | 8.27 µM | 39.5 µM | 22.4 µM | 15.8 µM
